Measured values reported in patent US20250114345A1, “COMPOUNDS AND COMPOSITIONS AS CBP/P300 DEGRADERS AND USES THEREOF” (Oncopia Therapeutics, Inc. d/b/a/ SK Life Science Labs, priority 2023, published 2025).

Assays:
p300 = molecular target: T1, p300 (Homo sapiens, UniProt Q09472); assay: P300 degradation, HiBit technology in A549 P300 HiBit cells (2 h); type: cell-based; settings: 2 hrs post treatment; for Dmax: A549, A549 P300 HiBit cells; for DC50: A549 P300 HiBit cells
T1 construct: host or cells: A549 P300 HiBit cells
Outline: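 A549 cells carrying HiBit-tagged p300 or CBP, seeded overnight at 37 °C/5% CO2, then treated with serial compound dilutions from 10 mM DMSO stocks. Incubation was 2 h for p300 and 24 h for CBP, followed by HiBit lytic detection reagent for 10 min at room temperature. Luminescence read gave degradation potency and Dmax.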

CBP = molecular target: T2, CBP (Homo sapiens, UniProt Q92793); assay: CBP degradation, HiBit technology in A549 CBP HiBit cells (24 h); type: cell-based; settings: 24 hrs post treatment
T2 construct: host or cells: A549 CBP HiBit cells
Description: p300 and CBP degradation potency and Dmax were determined using in cell western (ICW) assay technology in H1299 cells or HiBit technology in A549 HiBit cells.
A549 P300 HiBit and A549 CBP HiBit cells were plated in separate 384-well, TC treated, white-opaque, flat-bottomed microplate. Cells were plated at a cell density of 0.2×10^4 cells per well in assay media comprised of F-12K, 10% heat inactivated FBS, and 1% penicillin/streptomycin. Assay microplates containing HiBit cells were placed in a 37° C., 5% CO2, tissue culture incubator and left to equilibrate overnight. The next day cells were treated with serial dilutions of test compound made up of 10 mM stock solutions in DMSO. 384-Well plates containing treated cells were then placed back into a 37° C., 5% CO2, tissue culture incubator. Assay microplates containing A549 P300 HiBit cells were incubated for 2 hrs post treatment before P300 destruction was assessed, while microplates containing A549 CBP HiBit cells were incubated for 24 hrs post treatment before CBP destruction was determined. On the day of each assay time point, microplates were removed from the tissue culture incubator and prepared HiBit Lytic detection buffer (Promega, cat #N3O40) was added to each plate. Plates were covered with aluminum foil and incubated for ten minutes at room temperature on an orbital shaker. After incubation, luminescent signal of each plate was measured using the Envision instrument (Perkin Elmer).

T2 sequence (Q92793 whole entry): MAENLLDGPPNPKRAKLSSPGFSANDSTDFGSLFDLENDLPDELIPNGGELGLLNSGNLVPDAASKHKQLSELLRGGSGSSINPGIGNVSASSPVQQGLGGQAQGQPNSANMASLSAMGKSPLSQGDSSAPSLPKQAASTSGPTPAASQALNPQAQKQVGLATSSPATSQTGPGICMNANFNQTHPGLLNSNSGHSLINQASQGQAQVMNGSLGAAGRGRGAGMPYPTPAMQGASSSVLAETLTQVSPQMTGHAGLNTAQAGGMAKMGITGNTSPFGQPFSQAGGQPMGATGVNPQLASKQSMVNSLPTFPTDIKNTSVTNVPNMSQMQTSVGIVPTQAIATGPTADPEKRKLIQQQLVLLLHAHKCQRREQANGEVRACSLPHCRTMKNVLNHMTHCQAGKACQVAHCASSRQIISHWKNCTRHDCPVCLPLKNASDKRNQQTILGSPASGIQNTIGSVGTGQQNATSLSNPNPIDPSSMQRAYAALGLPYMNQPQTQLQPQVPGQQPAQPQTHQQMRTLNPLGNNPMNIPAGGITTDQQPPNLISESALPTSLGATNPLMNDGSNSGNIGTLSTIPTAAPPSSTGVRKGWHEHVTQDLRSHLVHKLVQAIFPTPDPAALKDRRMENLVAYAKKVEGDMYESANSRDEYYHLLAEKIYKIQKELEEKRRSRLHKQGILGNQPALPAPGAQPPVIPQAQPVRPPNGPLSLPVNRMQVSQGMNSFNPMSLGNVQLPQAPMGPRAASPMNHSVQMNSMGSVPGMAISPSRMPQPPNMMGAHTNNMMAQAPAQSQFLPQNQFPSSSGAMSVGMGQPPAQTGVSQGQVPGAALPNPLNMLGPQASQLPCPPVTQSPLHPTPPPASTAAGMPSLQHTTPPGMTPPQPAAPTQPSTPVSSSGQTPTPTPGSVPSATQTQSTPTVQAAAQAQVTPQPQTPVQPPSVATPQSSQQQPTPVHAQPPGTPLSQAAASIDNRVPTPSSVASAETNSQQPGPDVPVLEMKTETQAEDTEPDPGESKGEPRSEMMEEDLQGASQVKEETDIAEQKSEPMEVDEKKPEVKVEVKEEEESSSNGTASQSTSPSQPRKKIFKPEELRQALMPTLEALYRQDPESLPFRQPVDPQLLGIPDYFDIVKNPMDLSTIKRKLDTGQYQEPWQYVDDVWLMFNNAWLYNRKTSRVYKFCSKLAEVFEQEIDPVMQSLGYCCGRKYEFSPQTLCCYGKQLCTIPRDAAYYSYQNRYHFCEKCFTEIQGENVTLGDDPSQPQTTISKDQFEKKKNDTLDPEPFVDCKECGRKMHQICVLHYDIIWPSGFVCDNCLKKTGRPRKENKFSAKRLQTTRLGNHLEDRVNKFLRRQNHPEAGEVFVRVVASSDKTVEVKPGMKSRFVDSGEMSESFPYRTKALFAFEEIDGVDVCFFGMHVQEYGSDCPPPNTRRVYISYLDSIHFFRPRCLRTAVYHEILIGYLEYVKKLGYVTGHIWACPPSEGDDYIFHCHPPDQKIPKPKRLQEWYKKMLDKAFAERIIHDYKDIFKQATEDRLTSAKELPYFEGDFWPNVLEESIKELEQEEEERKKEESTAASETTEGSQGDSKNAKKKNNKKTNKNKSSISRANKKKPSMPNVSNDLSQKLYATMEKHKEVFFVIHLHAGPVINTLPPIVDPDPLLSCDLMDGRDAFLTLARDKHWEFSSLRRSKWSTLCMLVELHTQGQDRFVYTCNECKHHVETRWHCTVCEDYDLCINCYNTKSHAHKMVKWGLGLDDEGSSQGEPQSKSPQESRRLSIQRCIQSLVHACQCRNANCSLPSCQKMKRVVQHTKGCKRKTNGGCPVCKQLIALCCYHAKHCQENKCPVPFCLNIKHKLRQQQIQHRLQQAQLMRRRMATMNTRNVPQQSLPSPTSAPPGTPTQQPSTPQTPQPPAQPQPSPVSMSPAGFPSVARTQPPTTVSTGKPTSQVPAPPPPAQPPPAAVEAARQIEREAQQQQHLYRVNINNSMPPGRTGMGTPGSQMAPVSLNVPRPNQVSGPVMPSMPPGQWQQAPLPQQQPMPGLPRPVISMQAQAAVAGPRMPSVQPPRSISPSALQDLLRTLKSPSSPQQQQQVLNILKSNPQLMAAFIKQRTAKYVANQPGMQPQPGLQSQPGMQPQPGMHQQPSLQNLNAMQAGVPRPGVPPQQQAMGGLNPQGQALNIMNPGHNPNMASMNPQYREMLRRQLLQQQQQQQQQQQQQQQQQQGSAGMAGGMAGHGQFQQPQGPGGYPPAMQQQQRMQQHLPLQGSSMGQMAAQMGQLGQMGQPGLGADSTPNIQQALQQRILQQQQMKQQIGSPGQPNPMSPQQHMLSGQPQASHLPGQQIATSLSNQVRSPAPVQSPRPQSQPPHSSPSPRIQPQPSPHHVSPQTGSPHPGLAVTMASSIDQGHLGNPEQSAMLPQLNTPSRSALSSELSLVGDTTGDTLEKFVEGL
T1 sequence (Q09472 whole entry): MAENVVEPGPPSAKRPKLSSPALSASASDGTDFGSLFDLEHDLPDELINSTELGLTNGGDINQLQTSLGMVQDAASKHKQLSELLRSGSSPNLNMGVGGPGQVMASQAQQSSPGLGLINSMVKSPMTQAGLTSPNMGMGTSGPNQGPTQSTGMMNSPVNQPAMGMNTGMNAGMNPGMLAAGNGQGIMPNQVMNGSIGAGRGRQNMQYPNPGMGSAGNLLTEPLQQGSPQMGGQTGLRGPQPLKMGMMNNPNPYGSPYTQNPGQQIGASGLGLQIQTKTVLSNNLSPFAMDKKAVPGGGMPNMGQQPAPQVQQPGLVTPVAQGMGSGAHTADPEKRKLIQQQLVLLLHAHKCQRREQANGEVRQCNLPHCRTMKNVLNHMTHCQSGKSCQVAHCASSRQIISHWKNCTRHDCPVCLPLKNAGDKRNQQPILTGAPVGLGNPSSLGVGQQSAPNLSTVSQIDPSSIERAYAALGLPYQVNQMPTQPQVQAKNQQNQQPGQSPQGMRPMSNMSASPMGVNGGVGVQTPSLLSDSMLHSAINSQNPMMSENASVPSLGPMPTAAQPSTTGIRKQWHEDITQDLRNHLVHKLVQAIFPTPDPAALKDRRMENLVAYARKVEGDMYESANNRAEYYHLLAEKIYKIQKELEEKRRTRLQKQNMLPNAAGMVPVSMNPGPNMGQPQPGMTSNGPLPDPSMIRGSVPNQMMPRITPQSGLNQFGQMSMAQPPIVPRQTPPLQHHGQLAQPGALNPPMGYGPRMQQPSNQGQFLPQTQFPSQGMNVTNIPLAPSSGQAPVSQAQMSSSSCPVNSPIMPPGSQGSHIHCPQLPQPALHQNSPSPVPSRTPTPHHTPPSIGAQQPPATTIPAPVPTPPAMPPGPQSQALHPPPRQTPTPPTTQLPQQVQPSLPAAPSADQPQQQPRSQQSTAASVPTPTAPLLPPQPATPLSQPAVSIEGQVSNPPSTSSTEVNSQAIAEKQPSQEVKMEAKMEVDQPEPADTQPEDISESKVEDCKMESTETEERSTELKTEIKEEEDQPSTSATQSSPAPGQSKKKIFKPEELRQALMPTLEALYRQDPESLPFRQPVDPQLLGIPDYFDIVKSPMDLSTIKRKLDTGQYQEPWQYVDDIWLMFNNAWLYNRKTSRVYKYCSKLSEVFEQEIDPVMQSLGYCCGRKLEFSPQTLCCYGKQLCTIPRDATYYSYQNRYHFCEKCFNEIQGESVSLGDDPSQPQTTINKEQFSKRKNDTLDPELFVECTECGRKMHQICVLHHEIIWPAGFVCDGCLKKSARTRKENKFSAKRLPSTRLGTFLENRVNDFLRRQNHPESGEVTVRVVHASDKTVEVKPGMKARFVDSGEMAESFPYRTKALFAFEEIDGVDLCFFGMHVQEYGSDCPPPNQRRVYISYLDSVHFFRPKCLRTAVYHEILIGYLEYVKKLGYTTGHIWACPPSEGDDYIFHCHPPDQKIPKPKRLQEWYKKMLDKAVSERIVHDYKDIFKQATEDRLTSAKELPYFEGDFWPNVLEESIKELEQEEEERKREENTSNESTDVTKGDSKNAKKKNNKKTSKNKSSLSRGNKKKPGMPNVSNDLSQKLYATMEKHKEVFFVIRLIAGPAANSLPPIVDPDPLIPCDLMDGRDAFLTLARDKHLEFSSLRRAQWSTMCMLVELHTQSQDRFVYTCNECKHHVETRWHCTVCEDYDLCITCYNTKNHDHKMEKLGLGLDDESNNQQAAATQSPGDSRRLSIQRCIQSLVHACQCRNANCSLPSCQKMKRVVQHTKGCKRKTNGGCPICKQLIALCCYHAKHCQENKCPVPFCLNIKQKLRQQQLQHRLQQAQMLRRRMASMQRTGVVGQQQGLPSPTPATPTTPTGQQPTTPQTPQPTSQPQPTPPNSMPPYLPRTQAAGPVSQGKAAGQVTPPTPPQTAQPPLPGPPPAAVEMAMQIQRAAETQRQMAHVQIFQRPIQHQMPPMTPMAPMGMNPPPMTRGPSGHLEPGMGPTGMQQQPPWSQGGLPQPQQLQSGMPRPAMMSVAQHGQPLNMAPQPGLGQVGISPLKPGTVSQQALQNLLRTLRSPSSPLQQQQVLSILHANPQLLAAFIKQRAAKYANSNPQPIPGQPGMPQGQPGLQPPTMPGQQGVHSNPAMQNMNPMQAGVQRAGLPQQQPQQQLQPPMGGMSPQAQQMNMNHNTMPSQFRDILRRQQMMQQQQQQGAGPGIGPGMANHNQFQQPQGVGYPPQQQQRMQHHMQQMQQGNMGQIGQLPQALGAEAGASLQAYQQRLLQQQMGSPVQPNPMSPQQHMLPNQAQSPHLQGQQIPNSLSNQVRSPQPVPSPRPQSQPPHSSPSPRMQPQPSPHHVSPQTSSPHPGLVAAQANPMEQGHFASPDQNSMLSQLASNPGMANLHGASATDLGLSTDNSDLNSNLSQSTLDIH

Structure (SMILES): CC(C)c1cc(-c2cccc3cc(-c4ccc(C(=O)NCC#Cc5ccc6cnn(C7CCC(=O)NC7=O)c6c5)nc4)ncc23)cc2c1n(C)c(=O)n2C (stereo not shown) [Example A11, N-(3-(1-(2,6-Dioxopiperidin-3-yl)-1H-indazol-6-yl)prop-2-yn-1-yl)-5-(8-(7-isopropyl-1,3-dimethyl-2-oxo-2,3-dihydro-1H-benzo[d]imidazol-5-yl)isoquinolin-3-yl)picolinamide]
- Dmax (p300): > 80%
- DC50 (p300): 1 to 9.9 nM
- DC50 (CBP): 10 to 99 nM
- Dmax (CBP): 20 to 39%

Structure (SMILES): CC(C)c1cc(-c2cccc3cc(-c4ccc(C(=O)NCC#Cc5ccc6oc(=O)n(C7CCC(=O)NC7=O)c6c5)nc4)ncc23)cc2c1n(C)c(=O)n2C (stereo not shown) [Example A14, N-(3-(3-(2,6-Dioxopiperidin-3-yl)-2-oxo-2,3-dihydrobenzo[d]oxazol-5-yl)prop-2-yn-1-yl)-5-(8-(7-isopropyl-1,3-dimethyl-2-oxo-2,3-dihydro-1H-benzo[d]imidazol-5-yl)isoquinolin-3-yl)picolinamide]
- Dmax (p300): > 80%
- DC50 (p300): 1 to 9.9 nM
- DC50 (CBP): 10 to 99 nM
- Dmax (CBP): 60 to 79%

Structure (SMILES): CC(C)c1cc(-c2cccc3cc(-c4ccc(C(=O)NCC#Cc5ccc6ncn(C7CCC(=O)NC7=O)c6c5)nc4)ncc23)cc2c1n(C)c(=O)n2C (stereo not shown) [Example A15, N-(3-(1-(2,6-Dioxopiperidin-3-yl)-1H-benzo[d]imidazol-6-yl)prop-2-yn-1-yl)-5-(8-(7-isopropyl-1,3-dimethyl-2-oxo-2,3-dihydro-1H-benzo[d]imidazol-5-yl)isoquinolin-3-yl)picolinamide]
- Dmax (p300): > 80%
- DC50 (p300): < 1 nM
- DC50 (CBP): > 1000 nM
- Dmax (CBP): < 20%

Structure (SMILES): CC(C)c1cc(-c2cccc3cc(-c4ccc(C(=O)NC/C=C/c5cc(NC6CCC(=O)NC6=O)nn5C)nc4)ncc23)cc2c1n(C)c(=O)n2C (stereo not shown) [Example A16, (E)-N-(3-(3-((2,6-Dioxopiperidin-3-yl)amino)-1-methyl-1H-pyrazol-5-yl)allyl)-5-(8-(7-isopropyl-1,3-dimethyl-2-oxo-2,3-dihydro-1H-benzo[d]imidazol-5-yl)isoquinolin-3-yl)picolinamide]
- Dmax (p300): 20 to 39%
- DC50 (p300): 1 to 9.9 nM
- DC50 (CBP): > 1000 nM
- Dmax (CBP): < 20%

Structure (SMILES): CC(C)c1cc(-c2cccc3cc(-c4ccc(C(=O)NCC#Cc5ccc6c(c5)n(C5CCC(=O)NC5=O)c(=O)n6C)nc4)ncc23)cc2c1n(C)c(=O)n2C (stereo not shown) [Example A18, N-(3-(3-(2,6-Dioxopiperidin-3-yl)-1-methyl-2-oxo-2,3-dihydro-1H-benzo[d]imidazol-5-yl)prop-2-yn-1-yl)-5-(8-(7-isopropyl-1,3-dimethyl-2-oxo-2,3-dihydro-1H-benzo[d]imidazol-5-yl)isoquinolin-3-yl)picolinamide]
- Dmax (p300): > 80%
- DC50 (p300): 1 to 9.9 nM
- DC50 (CBP): 10 to 99 nM
- Dmax (CBP): 60 to 79%

Structure (SMILES): CC(C)c1cc(-c2cccc3cc(-c4ccc(C(=O)NCC#Cc5ccc6occ(C7CCC(=O)NC7=O)c6c5)nc4)ncc23)cc2c1n(C)c(=O)n2C (stereo not shown) [Example A23, N-(3-(3-(2,6-Dioxopiperidin-3-yl)benzofuran-5-yl)prop-2-yn-1-yl)-5-(8-(7-isopropyl-1,3-dimethyl-2-oxo-2,3-dihydro-1H-benzo[d]imidazol-5-yl)isoquinolin-3-yl)picolinamide]
- Dmax (p300): > 80%
- DC50 (p300): 1 to 9.9 nM
- DC50 (CBP): > 1000 nM
- Dmax (CBP): < 20%

Structure (SMILES): CC(C)c1cc(-c2cccc3cc(-c4ccc(C(=O)NCC#Cc5cc(NC6CCC(=O)NC6=O)nn5C)nc4)ncc23)cc2c1n(C)c(=O)n2C (stereo not shown) [Example A24, N-(3-(3-((2,6-Dioxopiperidin-3-yl)amino)-1-methyl-1H-pyrazol-5-yl)prop-2-yn-1-yl)-5-(8-(7-isopropyl-1,3-dimethyl-2-oxo-2,3-dihydro-1H-benzo[d]imidazol-5-yl)isoquinolin-3-yl)picolinamide]
- Dmax (p300): > 80%
- DC50 (p300): < 1 nM
- DC50 (CBP): > 1000 nM
- Dmax (CBP): < 20%

Structure (SMILES): CC(C)c1cc(-c2cccc3cc(-c4ccc(C(=O)NCC#Cc5ccc6ncc(C7CCC(=O)NC7=O)n6c5)nc4)ncc23)cc2c1n(C)c(=O)n2C (stereo not shown) [Example A25, N-(3-(3-(2,6-Dioxopiperidin-3-yl)imidazo[1,2-a]pyridin-6-yl)prop-2-yn-1-yl)-5-(8-(7-isopropyl-1,3-dimethyl-2-oxo-2,3-dihydro-1H-benzo[d]imidazol-5-yl)isoquinolin-3-yl)picolinamide]
- Dmax (p300): > 80%
- DC50 (p300): < 1 nM
- DC50 (CBP): 100 to 999 nM
- Dmax (CBP): < 20%

Structure (SMILES): CC(C)c1cc(-c2cccc3cc(-c4ccc(C(=O)NCC#Cc5cc(OC6CCC(=O)NC6=O)nn5C)nc4)ncc23)cc2c1n(C)c(=O)n2C (stereo not shown) [Example A29, N-(3-(3-((2,6-Dioxopiperidin-3-yl)oxy)-1-methyl-1H-pyrazol-5-yl)prop-2-yn-1-yl)-5-(8-(7-isopropyl-1,3-dimethyl-2-oxo-2,3-dihydro-1H-benzo[d]imidazol-5-yl)isoquinolin-3-yl)picolinamide]
- Dmax (p300): > 80%
- DC50 (p300): 1 to 9.9 nM
- DC50 (CBP): > 1000 nM
- Dmax (CBP): < 20%

Structure (SMILES): Cc1cc(-c2ccc(N(C)c3cc(C(C)C)c4c(c3)n(C)c(=O)n4C)cn2)cnc1C(=O)NCC#Cc1cccc(NC2CCC(=O)NC2=O)c1 (stereo not shown) [Example A34, N-(3-(3-((2,6-Dioxopiperidin-3-yl)amino)phenyl)prop-2-yn-1-yl)-5-((7-isopropyl-1,3-dimethyl-2-oxo-2,3-dihydro-1H-benzo[d]imidazol-5-yl)(methyl)amino)-5′-methyl-[2,3′-bipyridine]-6′-carboxamide]
- Dmax (p300): > 80%
- DC50 (p300): 10 to 99 nM
- DC50 (CBP): > 1000 nM
- Dmax (CBP): < 20%

Structure (SMILES): CC(C)c1cc(-c2cccc3cc(-c4ccc(C(=O)NCC#Cc5ccc6cnn(C7CCC(=O)NC7=O)c6c5Cl)nc4)ncc23)cc2c1n(C)c(=O)n2C (stereo not shown) [Example A39, N-(3-(7-Chloro-1-(2,6-dioxopiperidin-3-yl)-1H-indazol-6-yl)prop-2-yn-1-yl)-5-(8-(7-isopropyl-1,3-dimethyl-2-oxo-2,3-dihydro-1H-benzo[d]imidazol-5-yl)isoquinolin-3-yl)picolinamide]
- Dmax (p300): > 80%
- DC50 (p300): 1 to 9.9 nM
- DC50 (CBP): 100 to 999 nM
- Dmax (CBP): 20 to 39%

Structure (SMILES): Cc1cc(-c2ccc(N(C)c3cc(C4CCOCC4)c4c(c3)n(C)c(=O)n4C)cn2)cnc1C(=O)NCC#Cc1cccc(NC2CCC(=O)NC2=O)c1 (stereo not shown) [Example A45, 5-((1,3-dimethyl-2-oxo-7-(tetrahydro-2H-pyran-4-yl)-2,3-dihydro-1H-benzo[d]imidazol-5-yl) (methyl)amino)-N-(3-(3-((2,6-dioxopiperidin-3-yl)amino)phenyl)prop-2-yn-1-yl)-5′-methyl-[2,3′-bipyridine]-6′-carboxamide]
- Dmax (p300): > 80%
- DC50 (p300): 1 to 9.9 nM
- DC50 (CBP): > 1000 nM
- Dmax (CBP): < 20%

Structure (SMILES): Cc1cc(-c2ncc(N(C)c3cc(C(C)C)c4c(c3)n(C)c(=O)n4C)cn2)cnc1C(=O)NCC#Cc1cccc(NC2CCC(=O)NC2=O)c1 (stereo not shown) [Example A51, N-(3-(3-((2,6-dioxopiperidin-3-yl)amino)phenyl)prop-2-yn-1-yl)-5-(5-((7-isopropyl-1,3-dimethyl-2-oxo-2,3-dihydro-1H-benzo [d]imidazol-5-yl)(methyl)amino)pyrimidin-2-yl)-3-methylpicolinamide]
- Dmax (p300): > 80%
- DC50 (p300): 1 to 9.9 nM
- DC50 (CBP): > 1000 nM
- Dmax (CBP): < 20%

Structure (SMILES): Cc1cc(-c2ncc(N(C)c3cc(C4CCOCC4)c4c(c3)n(C)c(=O)n4C)cn2)cnc1C(=O)NCC#Cc1ccc2occ(C3CCC(=O)NC3=O)c2c1 (stereo not shown) [Example A53, 5-(5-((1,3-dimethyl-2-oxo-7-(tetrahydro-2H-pyran-4-yl)-2,3-dihydro-1H-benzo[d]imidazol-5-yl)(methyl)amino)pyrimidin-2-yl)-N-(3-(3-(2,6-dioxo-piperidin-3-yl)benzofuran-5-yl)prop-2-yn-1-yl)-3-methylpicolinamide]
- Dmax (p300): > 80%
- DC50 (p300): < 1 nM
- DC50 (CBP): > 1000 nM
- Dmax (CBP): < 20%

Structure (SMILES): Cc1cc(-c2ncc(N(C)c3cc(C4CCOCC4)c4c(c3)n(C)c(=O)n4C)cn2)cnc1C(=O)NCC#Cc1ccc2occ([C@H]3CCC(=O)NC3=O)c2c1 [Example A54, (R)-5-(5-((1,3-dimethyl-2-oxo-7-(tetrahydro-2H-pyran-4-yl)-2,3-dihydro-1H-benzo[d]imidazol-5-yl)(methyl)amino)pyrimidin-2-yl)-N-(3-(3-(2,6-dioxopiperidin-3-yl)benzofuran-5-yl)prop-2-yn-1-yl)-3-methylpicolinamide]
- Dmax (p300): > 80%
- DC50 (p300): 1 to 9.9 nM
- DC50 (CBP): > 1000 nM
- Dmax (CBP): < 20%

Structure (SMILES): Cc1cc(-c2ncc(N(C)c3cc(C4CCOCC4)c4c(c3)n(C)c(=O)n4C)cn2)cnc1C(=O)NCC#Cc1ccc2occ([C@@H]3CCC(=O)NC3=O)c2c1 [Example A55, (S)-5-(5-((1,3-dimethyl-2-oxo-7-(tetrahydro-2H-pyran-4-yl)-2,3-dihydro-1H-benzo[d]imidazol-5-yl)(methyl)amino)pyrimidin-2-yl)-N-(3-(3-(2,6-dioxo-piperidin-3-yl)benzofuran-5-yl)prop-2-yn-1-yl)-3-methylpicolinamide]
- Dmax (p300): > 80%
- DC50 (p300): 1 to 9.9 nM
- DC50 (CBP): > 1000 nM
- Dmax (CBP): < 20%
